Results reported in US10463667B2 (Incyte Corporation, priority 2007, dated 2019).

Experiments:
[1] = Intrinsic clearance assay (human liver microsomes); type: in vitro ADME; conditions: both sexes; 1 μM compound, human liver microsomes 0.5 mg/mL protein, 37° C., 1 mM NADPH; read-out: Human Intrinsic CL (converted)
Experimental: Intrinsic Clearance Assay
The disappearance of the test compound was monitored by LC/MS at […] The slope of decline in compound concentration was used to calculate the human intrinsic clearance by employing standard methods reported in the literature.

[2] = biological target: human JAK1 (a.a. 837-1142) catalytic domain (Homo sapiens, UniProt P23458); assay: In vitro JAK kinase assay (HTRF), JAK1
Chain of human JAK1 (a.a. 837-1142) catalytic domain (P23458 849-1154): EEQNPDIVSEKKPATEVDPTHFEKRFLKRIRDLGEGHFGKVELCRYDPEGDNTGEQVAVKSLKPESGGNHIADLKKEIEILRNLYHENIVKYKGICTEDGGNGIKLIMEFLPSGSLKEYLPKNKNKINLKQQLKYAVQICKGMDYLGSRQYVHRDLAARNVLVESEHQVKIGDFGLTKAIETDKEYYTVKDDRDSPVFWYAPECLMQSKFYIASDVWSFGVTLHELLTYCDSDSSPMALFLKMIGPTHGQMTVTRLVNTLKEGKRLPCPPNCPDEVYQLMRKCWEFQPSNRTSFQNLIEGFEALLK

[3] = biological target: T1, human Jak2 (a.a. 828-1132) catalytic domain (Homo sapiens, UniProt O60674); assay: In vitro JAK kinase assay (HTRF), JAK2; type: biochemical; conditions: 30 μM ATP; ranges = lowest and highest values of the stereoisomers tested; read-out: JAK 2 IC50
T1 construct: Jak2 (a.a. 828-1132); His tag (N); made in house; host or cells: insect cells (baculovirus)
T1 sequence (O60674 828-1132): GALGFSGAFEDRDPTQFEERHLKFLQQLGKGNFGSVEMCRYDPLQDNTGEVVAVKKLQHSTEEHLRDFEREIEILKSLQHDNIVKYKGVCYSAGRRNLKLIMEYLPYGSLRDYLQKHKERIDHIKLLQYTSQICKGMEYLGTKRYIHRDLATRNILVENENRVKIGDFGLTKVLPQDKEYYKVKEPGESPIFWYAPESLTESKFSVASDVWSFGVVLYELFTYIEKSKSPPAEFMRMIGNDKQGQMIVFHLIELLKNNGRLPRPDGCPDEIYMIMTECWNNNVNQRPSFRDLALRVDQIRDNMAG

[4] = biological target: human Jak3 (a.a. 781-1124) catalytic domain (Homo sapiens, UniProt P52333); assay: In vitro JAK kinase assay (HTRF), JAK3
Chain of human Jak3 (a.a. 781-1124) catalytic domain (P52333 781-1124): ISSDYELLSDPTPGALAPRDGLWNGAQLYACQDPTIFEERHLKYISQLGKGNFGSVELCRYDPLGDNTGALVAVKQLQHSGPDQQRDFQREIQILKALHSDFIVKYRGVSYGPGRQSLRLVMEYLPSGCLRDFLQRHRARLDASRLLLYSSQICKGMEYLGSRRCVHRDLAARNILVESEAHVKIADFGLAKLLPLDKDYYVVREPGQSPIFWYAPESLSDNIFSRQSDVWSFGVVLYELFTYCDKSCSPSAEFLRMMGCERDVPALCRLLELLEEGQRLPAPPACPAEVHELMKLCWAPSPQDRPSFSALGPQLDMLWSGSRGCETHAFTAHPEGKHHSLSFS

Row | Compound | CLint scaled at 1 μM [1] | IC50 [2] | IC50 [3] | IC50 [4]
1 | N#CC[C@H](C1CCCC1)n1cc(-c2ncnc3[nH]ccc23)cn1 [Compound 1, (R)-3-(4-(7H-pyrrolo[2,3-d]pyrimidin-4-yl)-1H-pyrazol-1-yl)-3-cyclopentylpropanenitrile, reference compound] | 11.3 mL/min/kg | – | – | –
2 | N#CCC(C1CCC(O)C1)n1cc(-c2ncnc3[nH]ccc23)cn1 (stereo not shown) [Metabolite 1, 3-(4-(7H-pyrrolo[2,3-d]pyrimidin-4-yl)-1H-pyrazol-1-yl)-3-(3-hydroxycyclopentyl)propanenitrile] | < 8.33 mL/min/kg | 2.5 to 12 nM | 0.7 to 2.5 nM | 8.3 to 45 nM
3 | N#CCC(C1CCC(=O)C1)n1cc(-c2ncnc3[nH]ccc23)cn1 (stereo not shown) [Metabolite 3, 3-(4-(7H-pyrrolo[2,3-d]pyrimidin-4-yl)-1H-pyrazol-1-yl)-3-(3-oxycyclopentyl)propanenitrile] | < 9.5 mL/min/kg | 2.7 to 12 nM | 2.1 to 5.9 nM | 11 to 41 nM
4 | N#CCC(C1CCCC1O)n1cc(-c2ncnc3[nH]ccc23)cn1 (stereo not shown) [Metabolite 2, 3-(4-(7H-pyrrolo[2,3-d]pyrimidin-4-yl)-1H-pyrazol-1-yl)-3-(2-hydroxycyclopentyl)propanenitrile] | < 8.33 mL/min/kg | 3 to 15 nM | 2 to 2.8 nM | 17 to 30 nM
